Experimental data taken from ChEMBL document CHEMBL3044878, “The interference between metformin treatment and TSH level in euthyroid type 2 diabetic patients” (Med Chem Res, 2013).
Calls of active or inactive are those of the source. No cut-off for these calls is given here.

Key:
Type in all cases: functional, organism-based
Homo sapiens [1] = species on record: Homo sapiens; assay: Effect on TSH level in diabetic obese pateint by ELISA relative to untreated healthy control
Homo sapiens [2] = species on record: Homo sapiens; assay: Decrease in TSH level in diabetic non-obese pateint by ELISA relative to untreated obese insulin-resistant control
Homo sapiens [3] = species on record: Homo sapiens; assay: Effect on FT4 level in diabetic non-obese pateint by ELISA relative to untreated healthy control
Homo sapiens [4] = species on record: Homo sapiens; assay: Effect on TSH level in diabetic non-obese pateint by ELISA relative to untreated healthy control
Homo sapiens [5] = species on record: Homo sapiens; assay: Effect on FT4 level in diabetic non-obese pateint by ELISA relative to untreated obese insulin-resistant control
Homo sapiens [6] = species on record: Homo sapiens; assay: Effect on FT4 level in diabetic obese pateint by ELISA relative to untreated obese insulin-resistant control
Homo sapiens [7] = species on record: Homo sapiens; assay: Effect on FT4 level in diabetic obese pateint by ELISA relative to untreated healthy control

With `CN(C)C(=N)NC(=N)N` the Activity (Homo sapiens [1]) was “inactive”, the Activity (Homo sapiens [2]) was “Active” and the Activity (Homo sapiens [3]) was “inactive”. For the same molecule, the Activity (Homo sapiens [4]) was “inactive”, the Activity (Homo sapiens [5]) was “inactive” and the Activity (Homo sapiens [6]) was “inactive”. The Activity (Homo sapiens [7]) was “inactive”.
